From PubChem BioAssay (NCI)
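Each compound was tested at five concentrations against cells in 96-well plates for 48 hours. The concentration for 50% growth inhibition is given as GI50. TGI is the concentration that stops growth completely.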 Where a SMILES comes first, the peptide text is derived from it. [ ]: non-standard residue; d: D form. The star is where a group is joined. Decanoyl = CCCCCCCCCC(=O)*; Leu(ol) = CC(C)C[C@H](N)CO; Iva = CC[C@](C)(N)C(=O)O; Aib = CC(C)(N)C(=O)O

Key:
Assay in all cases: growth of human tumour cells (NCI), 48 h
SK-OV-3 ovarian = test system: SK-OV-3 ovarian
SK-MEL-5 melanoma = test system: SK-MEL-5 melanoma
T-47D breast = test system: T-47D breast
MOLT-4 leukemia = test system: MOLT-4 leukemia
A549 NSCLC = test system: A549 NSCLC
HOP-62 NSCLC = test system: HOP-62 NSCLC
OVCAR-8 ovarian = test system: OVCAR-8 ovarian
SK-MEL-28 melanoma = test system: SK-MEL-28 melanoma
NCI-H522 lung = test system: NCI-H522 lung
K-562 leukemia = test system: K-562 leukemia
HOP-92 NSCLC = test system: HOP-92 NSCLC
TK-10 renal = test system: TK-10 renal
SN12C renal = test system: SN12C renal
SNB-19 CNS = test system: SNB-19 CNS
PC-3 prostate = test system: PC-3 prostate
SK-MEL-2 melanoma = test system: SK-MEL-2 melanoma
A498 renal = test system: A498 renal
RPMI-8226 leukemia = test system: RPMI-8226 leukemia
SF-268 CNS = test system: SF-268 CNS
ACHN renal = test system: ACHN renal
LOX IMVI melanoma = test system: LOX IMVI melanoma
SNB-75 CNS = test system: SNB-75 CNS
IGROV1 ovarian = test system: IGROV1 ovarian
DU-145 prostate = test system: DU-145 prostate
HS 578T breast = test system: HS 578T breast
HCC-2998 colon = test system: HCC-2998 colon
CCRF-CEM leukemia = test system: CCRF-CEM leukemia
MDA-MB-231 breast = test system: MDA-MB-231 breast
OVCAR-4 ovarian = test system: OVCAR-4 ovarian
KM12 colon = test system: KM12 colon
CAKI-1 renal = test system: CAKI-1 renal
HT29 colon = test system: HT29 colon
COLO 205 colon = test system: COLO 205 colon
SF-539 CNS = test system: SF-539 CNS
MDA-MB-435 = test system: MDA-MB-435
EKVX NSCLC = test system: EKVX NSCLC
NCI-H226 lung = test system: NCI-H226 lung
NCI-H23 lung = test system: NCI-H23 lung
UACC-62 melanoma = test system: UACC-62 melanoma
UACC-257 melanoma = test system: UACC-257 melanoma
SF-295 CNS = test system: SF-295 CNS
MALME-3M melanoma = test system: MALME-3M melanoma
HL-60(TB) leukemia = test system: HL-60(TB) leukemia
SR leukemia = test system: SR leukemia
UO-31 renal = test system: UO-31 renal
RXF 393 renal = test system: RXF 393 renal
OVCAR-5 ovarian = test system: OVCAR-5 ovarian
MDA-MB-468 breast = test system: MDA-MB-468 breast

Work on O=C(/C=C/c1ccccc1Cl)c1nc2ccccc2n1Cc1ccc(F)cc1 yielded a GI50 (SK-OV-3 ovarian) of 32.5 µM, a TGI (SK-OV-3 ovarian) greater than 100 µM and a GI50 (SK-MEL-5 melanoma) of 5.23 µM. For the same molecule, the TGI (SK-MEL-5 melanoma) was greater than 100 µM, the GI50 (T-47D breast) was 3.44 µM and the TGI (T-47D breast) was greater than 100 µM. It also gave a GI50 (MOLT-4 leukemia) of 3.04 µM, a TGI (MOLT-4 leukemia) greater than 100 µM and a GI50 (A549 NSCLC) of 8.06 µM. It also gave a TGI (A549 NSCLC) greater than 100 µM, a GI50 (HOP-62 NSCLC) of 5.03 µM and a TGI (HOP-62 NSCLC) of 41.9 µM. It also gave a GI50 (OVCAR-8 ovarian) of 3.25 µM, a TGI (OVCAR-8 ovarian) greater than 100 µM and a GI50 (SK-MEL-28 melanoma) of 2.75 µM. For the same molecule, the TGI (SK-MEL-28 melanoma) was 7.72 µM, the GI50 (NCI-H522 lung) was 4.49 µM and the TGI (NCI-H522 lung) was greater than 100 µM. For the same molecule, the GI50 (K-562 leukemia) was 3.3 µM, the TGI (K-562 leukemia) was greater than 100 µM and the GI50 (HOP-92 NSCLC) was 16.4 µM. The TGI (HOP-92 NSCLC) was 62.8 µM, the GI50 (TK-10 renal) was 6.22 µM and the TGI (TK-10 renal) was greater than 100 µM. The GI50 (SN12C renal) was 20.1 µM, the TGI (SN12C renal) was greater than 100 µM and the GI50 (SNB-19 CNS) was 3.99 µM. For the same molecule, the TGI (SNB-19 CNS) was 70 µM, the GI50 (PC-3 prostate) was 4.45 µM and the TGI (PC-3 prostate) was greater than 100 µM. It also gave a GI50 (SK-MEL-2 melanoma) of 13.4 µM, a TGI (SK-MEL-2 melanoma) greater than 100 µM and a GI50 (A498 renal) of 61.8 µM. The TGI (A498 renal) was greater than 100 µM, the GI50 (RPMI-8226 leukemia) was 2.97 µM and the TGI (RPMI-8226 leukemia) was greater than 100 µM. It also gave a GI50 (SF-268 CNS) of 8.56 µM, a TGI (SF-268 CNS) greater than 100 µM and a GI50 (ACHN renal) of 5.23 µM. The TGI (ACHN renal) was greater than 100 µM, the GI50 (LOX IMVI melanoma) was 1.65 µM and the TGI (LOX IMVI melanoma) was 3.23 µM. The GI50 (SNB-75 CNS) was 3.3 µM, the TGI (SNB-75 CNS) was greater than 100 µM and the GI50 (IGROV1 ovarian) was 3.33 µM. The TGI (IGROV1 ovarian) was greater than 100 µM, the GI50 (DU-145 prostate) was 4.61 µM and the TGI (DU-145 prostate) was greater than 100 µM. It also gave a GI50 (HS 578T breast) of 4.51 µM, a TGI (HS 578T breast) of 58.6 µM and a GI50 (HCC-2998 colon) of 3.16 µM. The TGI (HCC-2998 colon) was 55.8 µM, the GI50 (CCRF-CEM leukemia) was 2.45 µM and the TGI (CCRF-CEM leukemia) was greater than 100 µM. The GI50 (MDA-MB-231 breast) was 2.59 µM, the TGI (MDA-MB-231 breast) was 6.68 µM and the GI50 (OVCAR-4 ovarian) was 23 µM. For the same molecule, the TGI (OVCAR-4 ovarian) was greater than 100 µM, the GI50 (KM12 colon) was 3.34 µM and the TGI (KM12 colon) was greater than 100 µM. It also gave a GI50 (CAKI-1 renal) of 3.47 µM, a TGI (CAKI-1 renal) greater than 100 µM and a GI50 (HT29 colon) of 3.64 µM. It also gave a TGI (HT29 colon) greater than 100 µM, a GI50 (COLO 205 colon) of 4.01 µM and a TGI (COLO 205 colon) greater than 100 µM. For the same molecule, the GI50 (SF-539 CNS) was 2.33 µM, the TGI (SF-539 CNS) was 5.67 µM and the GI50 (MDA-MB-435) was 2.37 µM. The TGI (MDA-MB-435) was 5.92 µM, the GI50 (EKVX NSCLC) was 6.44 µM and the TGI (EKVX NSCLC) was greater than 100 µM. The GI50 (NCI-H226 lung) was 25.4 µM, the TGI (NCI-H226 lung) was greater than 100 µM and the GI50 (NCI-H23 lung) was 4.25 µM. It also gave a TGI (NCI-H23 lung) greater than 100 µM, a GI50 (UACC-62 melanoma) of 3.42 µM and a TGI (UACC-62 melanoma) of 17.9 µM. For the same molecule, the GI50 (UACC-257 melanoma) was 8.88 µM, the TGI (UACC-257 melanoma) was greater than 100 µM and the GI50 (SF-295 CNS) was 5.01 µM. For the same molecule, the TGI (SF-295 CNS) was 25.1 µM, the GI50 (MALME-3M melanoma) was 8.22 µM and the TGI (MALME-3M melanoma) was 70.2 µM. It also gave a GI50 (HL-60(TB) leukemia) of 2.51 µM, a TGI (HL-60(TB) leukemia) greater than 100 µM and a GI50 (SR leukemia) of 2.87 µM. The TGI (SR leukemia) was greater than 100 µM, the GI50 (UO-31 renal) was 2.58 µM and the TGI (UO-31 renal) was 11.2 µM. It also gave a GI50 (RXF 393 renal) of 2.06 µM, a TGI (RXF 393 renal) of 5.35 µM and a GI50 (OVCAR-5 ovarian) of 3.76 µM. It also gave a TGI (OVCAR-5 ovarian) of 73.1 µM.

For Nc1ccc(-c2cccs2)cc1NC(=O)c1ccc(CCCC(=O)Nc2ccc(C3CC3N)cc2)cc1 (stereo not given), the GI50 (MDA-MB-468 breast) was 1.9 µM and the TGI (MDA-MB-468 breast) was 4.37 µM.

For CCCCCCCCCC(=O)N[C@@](C)(CC)C(=O)N1CCC[C@H]1C(=O)N[C@@H](CC(C)C)C(=O)N[C@@](C)(CC)C(=O)N[C@@H](CCC(N)=O)C(=O)N[C@H](CCC(N)=O)C(=O)NC(C)(C)C(=O)NC(C)(C)C(=O)N[C@@H](CCC(N)=O)C(=O)N[C@H](CC(C)C)C(=O)N[C@H](CO)CC(C)C (Decanoyl-[Iva]PL[Iva]Q[dQ][Aib][Aib]Q[dL][Leu(ol)]), the GI50 (MDA-MB-468 breast) was 1.77 µM and the TGI (MDA-MB-468 breast) was 3.49 µM.

CCC(=O)Nc1ccc(C)c(-c2ccc(C(=O)NCC3CC3)cc2)c1 showed a GI50 (MDA-MB-468 breast) of 14.9 µM and a TGI (MDA-MB-468 breast) greater than 25 µM.

Molecule C=C1C(=O)O[C@H]2[C@H]1CC/C(COC(=O)C(C)c1ccc(CC(C)C)cc1)=C\CC[C@@]1(C)O[C@@H]21 (stereo not given in full) has a GI50 (MDA-MB-468 breast) of 1.76 µM and a TGI (MDA-MB-468 breast) of 3.79 µM.

NS(=O)(=O)NCCNc1nonc1C(=Nc1ccc(F)c(Br)c1)NO gave a GI50 (MDA-MB-468 breast) of 23.5 µM and a TGI (MDA-MB-468 breast) of 76.5 µM.

N#C/C(=C\c1ccc(Br)cc1)n1nnc2cc(Cl)c(Cl)cc21 showed a GI50 (MDA-MB-468 breast) of 2.15 µM and a TGI (MDA-MB-468 breast) of 5.13 µM.

Work on CCn1c(-c2nonc2N)nc2c(C#CC(C)(C)O)ncc(OC[C@H]3CCCNC3)c21 yielded a GI50 (MDA-MB-468 breast) of 0.0872 µM and a TGI (MDA-MB-468 breast) of 18.9 µM.

Molecule CC1(N)CCN(c2cnc(-c3cccc(Cl)c3Cl)c(N)n2)CC1 has a GI50 (MDA-MB-468 breast) of 2.58 µM and a TGI (MDA-MB-468 breast) of 17.2 µM.

C/C(=C\c1cc(C(F)(F)F)n(-c2ccc(N)cc2)n1)[C@@H]1C[C@@H]2O[C@]2(C)CCC[C@H](C)[C@H](O)[C@@H](C)C(=O)C(C)(C)[C@@H](O)CC(=O)O1 was tested, and the GI50 (MDA-MB-468 breast) was 0.0336 µM and the TGI (MDA-MB-468 breast) was 0.231 µM.

Oc1ccc(C2c3ccccc3Oc3ccccc32)c2cccnc12 showed a GI50 (MDA-MB-468 breast) of 0.644 µM and a TGI (MDA-MB-468 breast) of 4.53 µM.

With CC1=C(C(=O)Nc2cc(Cl)c3[nH]ncc3c2)C(c2ccc(C(F)(F)F)cc2)CC(=O)N1 (stereo not given) the GI50 (MDA-MB-468 breast) was 8.02 µM and the TGI (MDA-MB-468 breast) was greater than 25 µM.

Work on Cc1ccc(C(=O)/C(=C\c2ccc([N+](=O)[O-])cc2)S(=O)Cc2ccc(Cl)cc2)cc1 (stereo not given) yielded a GI50 (MDA-MB-468 breast) of 1.74 µM and a TGI (MDA-MB-468 breast) of 3.44 µM.

In the case of Cc1ccc(NC(=O)CSc2nnc3n(Cc4ccccc4)c(=O)c4c(C)c(C(N)=O)sc4n23)cc1, the GI50 (MDA-MB-468 breast) is reported as 18.6 µM and the TGI (MDA-MB-468 breast) is reported as greater than 100 µM.
